Test results taken from US20150238446A1, “NEW TREATMENT OF FISH WITH A NANOSUS PENS ION OF LUFENURON OR HEXAFLUMURON” (Novartis AG, priority 2012, published 2015).

How the values were obtained:
[1] = Stability testing of oily lufenuron or hexaflumuron formulations; assay type: physicochemical; details: in organic solvents/media
Excerpt: WO99/063824 discloses the use of hexaflumuron and lufenuron, both members of the chemical class of benzoylureas, in the control of sea lice infestations on fish. Hexaflumurone is applied to the fish orally, via bath treatment or via injection, lufenuron is proposed exclusively for injection. Oily injectable formulations of the two active ingredients, in particular those comprising, in addition, a vaccine against furunculosis, show activity against sea lice for 128 days or in case of hexaflumuron even longer. […] The resulting low shelf life make them unsuited for commercial use. […] In addition, as both hexaflumuron and lufenuron have a strong tendency to aggregate and form sediments in an aqueous environment, the handling of water-based injectables is difficult and cumbersome. So it is not surprising that no commercial lufenuron or hexaflumuron sea lice product has made it to the market until now.

[2] = cited from earlier work
sea lice = details: cited from earlier work; for duration of activity against sea lice: oily injectable formulations, in particular with a vaccine against furunculosis (WO99/063824)
L. salmonis = test: In vivo test in Atlantic salmon, natural sea lice infestation, pre-adult and adult count; details: nanosuspension injected
Experimental: Three groups of 150 salmon (Atlantic Salmon, S. salar) of an average weight 200 g were injected with an amount of the above nanosuspension (a) equivalent to 25 mg (cage 1), 50 mg (cage 2) or 75 mg lufenuron per kg salmon (cage 3). A fourth cage containing 150 salmon of average weight 200 g was added to the study as a non-treated control group.
After treatment, the fish were exposed to natural sea lice infestation for a period of 8 months. During the study the water temperature varied between 4 and 12° C. Sea louse numbers were assessed on a monthly basis until month 8. Counts were conducted on 10 fish at each sampling occasion. The numbers of pre-adults and adult L. salmonis were recorded for each fish. Efficacy was calculated using the formula:
% Efficacy=100−(100×mean of treatment group/mean of control).

O=C(NC(=O)c1c(F)cccc1F)Nc1cc(Cl)c(OC(F)(F)C(F)F)c(Cl)c1 [hexaflumuron, 1-[3,5-dichloro-4-(1,1,2,2-tetrafluoroethoxyl)phenyl]-3-(2,6-difluorobenzoyl)urea]
chemical stability of the active ingredient [1]: chemically instable | water-solubility [2]: ≤ 0.027 µg/mL | performance in vivo against sea lice (sea lice; hexaflumuron containing aqueous suspension (WO99/063824)): poor performance | duration of activity against sea lice (sea lice): > 128 days

O=C(NC(=O)c1c(F)cccc1F)Nc1cc(Cl)c(OC(F)(F)C(F)C(F)(F)F)cc1Cl (centres unmarked) [lufenuron, N-{[2,5-Dichlor-4-(1,1,2,3,3,3-hexafluorpropoxyl)phenyl]carbamoyl}-2,6-difluorbenzamid]
% efficacy pre-adult and adult count (L. salmonis; 25 mg/kg lufenuron, 1 month): 100% | % efficacy pre-adult and adult count (L. salmonis; 25 mg/kg lufenuron, 2 month): 95% | % efficacy pre-adult and adult count (L. salmonis; 25 mg/kg lufenuron, 3 month): 100% | % efficacy pre-adult and adult count (L. salmonis; 25 mg/kg lufenuron, 4 month): 96% | % efficacy pre-adult and adult count (L. salmonis; 25 mg/kg lufenuron, 5 month): 100% | % efficacy pre-adult and adult count (L. salmonis; 25 mg/kg lufenuron, 6 month): 81% | duration of complete protection of the fish against sea lice infestation (L. salmonis; 25 mg/kg): at least 5 month | duration of complete protection of the fish against sea lice infestation (L. salmonis; 50 mg/kg fish, until the end of the study): 8 month | % efficacy pre-adult and adult count (L. salmonis; 50 mg/kg lufenuron, 1 month): 90% | % efficacy pre-adult and adult count (L. salmonis; 50 mg/kg lufenuron, 2 month): 100% | % efficacy pre-adult and adult count (L. salmonis; 50 mg/kg lufenuron, 3 month): 100% | % efficacy pre-adult and adult count (L. salmonis; 50 mg/kg lufenuron, 4 month): 100% | % efficacy pre-adult and adult count (L. salmonis; 50 mg/kg lufenuron, 5 month): 97% | % efficacy pre-adult and adult count (L. salmonis; 50 mg/kg lufenuron, 6 month): 96% | % efficacy pre-adult and adult count (L. salmonis; 50 mg/kg lufenuron, 7 month): 98% | % efficacy pre-adult and adult count (L. salmonis; 50 mg/kg lufenuron, 8 month): 98% | % efficacy pre-adult and adult count (L. salmonis; 75 mg/kg lufenuron, 1 month): 100% | % efficacy pre-adult and adult count (L. salmonis; 75 mg/kg lufenuron, 2 month): 100% | % efficacy pre-adult and adult count (L. salmonis; 75 mg/kg lufenuron, 3 month): 100% | % efficacy pre-adult and adult count (L. salmonis; 75 mg/kg lufenuron, 4 month): 96% | % efficacy pre-adult and adult count (L. salmonis; 75 mg/kg lufenuron, 5 month): 100% | % efficacy pre-adult and adult count (L. salmonis; 75 mg/kg lufenuron, 6 month): 100% | % efficacy pre-adult and adult count (L. salmonis; 75 mg/kg lufenuron, 7 month): 98% | % efficacy pre-adult and adult count (L. salmonis; 75 mg/kg lufenuron, 8 month): 100% | duration of complete protection of the fish against sea lice infestation (L. salmonis; 75 mg/kg, until the end of the study): 8 month | chemical stability of the active ingredient [1]: chemically instable | water-solubility [2]: ≤ 0.06 µg/mL | duration of activity against sea lice (sea lice): 128 days
